The values below are quoted from earlier work in patent publication US20070148136A1, “Methods of using ammonia oxidizing bacteria” (priority 2003, published 2007).

Test systems include N. europaea; N. mobilis; N, multiformis.
What all share (conditions): cited from earlier work
The test system of data set [1] is Nitrosospira sp. strain AV.

On to `CCCCCCCCCCC(C)c1ccc(S(=O)(=O)O)cc1` (stereo not shown) [4-(2-dodecyl)benzenesulfonic acid], for which the “50% inhibitory concentration (IC50)” value is 5 µg/mL (ppm) in the data set on N. europaea; 3 µg/mL (ppm) with N. mobilis; 1 µg/mL (ppm) in the data set with N, multiformis; 1 µg/mL (ppm) in data set [1].
